How the values were obtained:
Nf1−/− astrocytes = assay: Cell cycle analysis by flow cytometry, Nf1−/− astrocytes; format: cell-based, mouse; conditions: CXCL12 0.1 μg/ml
Experimental: Cell Cycle Analysis. Ethanol fixed cells were washed in PBS and resuspended in PI staining solution containing 0.1% Triton-X-100, 0.2 mg/ml RNase A, and 20 ug/ml Propidium Iodide in PBS. The cells were incubated for 15 minutes at 37° C., in the dark. Flow Cytometry was performed on a FACSCalibur system (Becton Dickinson, San Jose, Calif.) Data were analyzed using CellQuest software (Becton Dickinson, San Jose, Calif.). Aggregates and debris were excluded from the analysis.
The basis for the in vitro growth effects of CXCL12 was further evaluated by cell cycle analysis of asynchronously growing cultures of Nf1+/+ and Nf1−/− astrocytes in the presence and absence of CXCL12. In agreement with measurements of cell number, 15% more Nf1−/− astrocytes were in the S+G2M fraction of the cell cycle compared to Nf1+/+ astrocytes (P<0.005, data not shown). This decrease in Nf1+/+ cell number in response to CXCL12 was the result of both a 6% decrease in proliferation (S+G2-M) and a 38+/−8% increase in apoptosis (sub-G0). The increase in Nf1−/− cell number was the result of a 27+/−12% decline in apoptosis alone (FIG. 9C).

Nf1+/+ astrocytes = assay: Intracellular cAMP by ELISA, Nf1+/+ astrocytes; format: cell-based, mouse; conditions: 0.1 μg/ml CXCL12, 45-minute period
Experimental: cAMP measurements. cAMP was measured by ELISA (Cayman Chemical Company, Ann Arbor, Mich. or Assay Designs, Ann Arbor, Mich.). Briefly, astrocyte cultures were lysed in 0.1 N HCl. After the removal of cellular debris, soluble cellular extract was dried down and resuspended in EIA buffer. Experimental samples and cAMP standard curve were acetylated to increase the sensitivity of the assay and incubated with cAMP ACHe tracer and cAMP EIA anti-serum overnight at 4° C. according to the manufacturer's instructions. After extensive washing, bound antibody was measured by spectrophotometric analysis. Concentrations of cAMP were derived from comparison with standard curve according to manufacturer's instructions.
We evaluated the time dependent changes in intracellular cAMP in Nf1+/+ and Nf1−/− astrocytes after exposure to 0.1 μg/ml CXCL12. […] However, in Nf1+/+ astrocytes, intracellular levels of cAMP rapidly recovered to baseline and oscillated between baseline and 40% of baseline over the 45-minute experimental period (FIG. 10B).
We hypothesized that if cooperative signaling between Nf1 loss and CXCR4 activation promotes tumor formation through the suppression of cAMP, then agents that alter intracellular cAMP should modulate CXCL12 responses. We treated astrocytes with the adenylyl cyclase (AC) activator forskolin in the presence and absence of CXCL12. […] In these experiments, forskolin elevated intracellular cAMP levels in both Nf1+/+ and Nf1−/− astrocytes with peak values of 17.8+/−0.4 and 19.4+/−4.5 pmol/mg of protein, respectively, after 24 hours of treatment. The effect of forskolin was not abrogated by co-treatment with CXCL12. Under these conditions, cAMP levels were 17.9+/−2.5 and 10.4+/−5.8 pmol/mg of total protein in Nf1+/+ and Nf1−/− astrocytes, respectively. […] The effect of forskolin on CXCL12-mediated Nf1−/− apoptosis was evidenced by changes in the percentage of Nf1−/− astrocytes in the sub-G0 fraction of the cell cycle (FIG. 11B). Thus while astrocyte growth is dependent upon MEK and PI3 kinase activity, CXCL12-induced Nf1−/− astrocyte growth requires the suppression of intracellular cAMP levels.

CXCR4 = molecular target: T1, CXCR4 (Mus musculus, UniProt P70658); assay: CXCL12-induced CXCR4 phosphorylation (pCXCR4 western blot), wild-type (Nf1+/+) astrocytes; format: cell-based; conditions: CXCL12 0.1 μg/ml, at 5 minutes
T1 construct: endogenous in cells; host or cells: primary mouse astrocytes (Nf1 flox/flox, infected with Ad-LacZ or Ad-Cre)
T1 sequence (P70658 whole entry): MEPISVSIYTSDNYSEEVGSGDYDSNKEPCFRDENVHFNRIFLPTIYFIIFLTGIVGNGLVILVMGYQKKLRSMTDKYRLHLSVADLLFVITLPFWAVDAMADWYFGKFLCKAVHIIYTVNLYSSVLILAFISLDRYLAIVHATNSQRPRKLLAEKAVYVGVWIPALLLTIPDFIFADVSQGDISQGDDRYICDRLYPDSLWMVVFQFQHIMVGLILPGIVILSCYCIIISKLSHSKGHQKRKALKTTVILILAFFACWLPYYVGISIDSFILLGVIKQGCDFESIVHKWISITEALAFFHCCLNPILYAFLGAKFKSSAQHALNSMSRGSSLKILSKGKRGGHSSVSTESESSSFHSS
Experimental: Western Blot Analysis. Whole-cell extracts were obtained by lysing cells with lysis buffer (20 mM Tris pH 7.4, 137 mM NaCl, 10% Glycerol and 1% Triton-X-100) supplemented with phosphatase inhibitor cocktail set II (Calbiochem, La Jolla, Calif.), PMSF (1 mM), leupeptin, (0.005 mg/ml) and aprotinin (0.005 mg/ml). The proteins were resolved with 10% Bis-Tris gels (Invitrogen) and transferred onto the nitrocellulose membrane Hybond ECL (Amersham, Piscataway, N.J.) according to standard protocols. Membranes were incubated with polyclonal antibodies CXCR4 (1:500), pErk½ (1:1200), pan Erk½ (1:150), pAkt (1:500), pan Akt (1:1000), pGRK2 (1:250), and pCXCR4 (1:200) overnight at 4° C. This was followed by incubation with horseradish peroxidase-conjugated secondary antibody (1:15,000; Bio-Rad). Peroxide activity was detected using the enhanced chemiluminescence Supersignal West Dura system (Pierce, Rockford, Ill.) Mouse anti-actin antibody was used as a loading control. Quantitation of western blots was performed by densitometry using Image J software from the NIH.
Among the primary mechanisms for controlling GPCR effects on cAMP production is receptor desensitization (140). This process is initiated when ligand occupied GPCR (e.g., CXCR4) is phosphorylated by G protein receptor kinase (GRK). […]

GPCs = assay: Cell number by trypan blue exclusion, primary GPCs; format: cell-based, mouse; conditions: CXCL12 1 μg/ml, 24 hours
Experimental: Primary granule neuron cultures. Primary cultures of purified GPCs were prepared from 6 day-old BALB/C mice as described (58). Cerebella were dissected and meninges were removed. After incubation with 0.1% trypsin (Sigma) in HBSS with 125 units/ml Dnase (Sigma), 0.5 mM EDTA for 20 minutes at 37° C., cells were pelleted and washed three times with HBSS. The final cell suspension was passed through a […] nylon mesh cell strainer (Falcon, Franklin Lakes, Mich.). Cells were diluted to 2×10^6 cells/ml in DMEM/F12 (Gibco BRL, Gaithersburg, Md.) supplemented with N2 (Gibco BRL), 20 mM KCl, and 36 mM glucose.
Growth factor and drug treatment. Following serum-starvation for 24 hours, astrocytes, granule cells, U87 cells and Daoy cells, were treated with 1 μg/ml CXCL12 (PeproTech), […] AMD3465 (kind gift from Simon Fricker, AnorMED, Langley, BC, Canada) (200 μM Rolipram (Sigma), or 10 μM Forskolin (Sigma) as indicated.

## CXCL12: chemokine ligand of CXCR4 (Peprotech)
Nf1−/− astrocytes
  decline in apoptosis (sub-G0): 27+/−12%
Nf1+/+ astrocytes
  integrated area under the cAMP curve: 2.70
  intracellular cAMP, lower level of oscillation: 40 % of baseline
CXCR4
  increase in pCXCR4: 2.6+/−0.06 fold
GPCs
  effect on cell number: no effect

Source: US7892767B2, “Phosphospecific chemokine receptor antibodies” (Washington University in St. Louis, priority 2005, dated 2011)
